Reference: PubChem BioAssay (NCI)
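These data come from cells grown in 96-well plates and exposed to compound for 48 hours at five concentrations. At the TGI there is no net growth.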

Experiments:
Assay in all cases: DTP human tumour cell line panel, 48 h
[1] = tested on: 786-0 renal
[2] = tested on: A498 renal
[3] = tested on: A549 NSCLC
[4] = tested on: ACHN renal
[5] = tested on: CAKI-1 renal
[6] = tested on: CCRF-CEM leukemia
[7] = tested on: COLO 205 colon
[8] = tested on: DU-145 prostate
[9] = tested on: EKVX NSCLC
[10] = tested on: HCC-2998 colon
[11] = tested on: HCT-15 colon
[12] = tested on: HL-60(TB) leukemia
[13] = tested on: HOP-62 NSCLC
[14] = tested on: HOP-92 NSCLC
[15] = tested on: HS 578T breast
[16] = tested on: HT29 colon
[17] = tested on: IGROV1 ovarian
[18] = tested on: K-562 leukemia
[19] = tested on: KM12 colon
[20] = tested on: M14 melanoma
[21] = tested on: MCF7 breast
[22] = tested on: MDA-MB-231 breast
[23] = tested on: MDA-MB-435
[24] = tested on: MDA-N
[25] = tested on: MOLT-4 leukemia
[26] = tested on: NCI-H226 lung
[27] = tested on: NCI-H23 lung
[28] = tested on: NCI-H460 lung
[29] = tested on: NCI-H522 lung
[30] = tested on: NCI/ADR-RES ovarian
[31] = tested on: OVCAR-3 ovarian
[32] = tested on: OVCAR-4 ovarian
[33] = tested on: OVCAR-5 ovarian
[34] = tested on: OVCAR-8 ovarian
[35] = tested on: PC-3 prostate
[36] = tested on: RPMI-8226 leukemia
[37] = tested on: SF-268 CNS
[38] = tested on: SF-295 CNS
[39] = tested on: SK-MEL-2 melanoma
[40] = tested on: SK-MEL-28 melanoma
[41] = tested on: SK-MEL-5 melanoma
[42] = tested on: SK-OV-3 ovarian
[43] = tested on: SN12C renal
[44] = tested on: SNB-19 CNS
[45] = tested on: SNB-75 CNS
[46] = tested on: SR leukemia
[47] = tested on: SW-620 colon
[48] = tested on: T-47D breast
[49] = tested on: TK-10 renal
[50] = tested on: U251 CNS
[51] = tested on: UACC-257 melanoma
[52] = tested on: UACC-62 melanoma
[53] = tested on: UO-31 renal
[54] = tested on: LOX IMVI melanoma
[55] = tested on: MALME-3M melanoma
[56] = tested on: RXF 393 renal
[57] = tested on: SF-539 CNS
[58] = tested on: HCT-116 colon
[59] = tested on: BT-549 breast

COC1/C=C/C(C)C(C(C)C(OC)C(C)CCC(=O)C(C)C(CC(=O)O)OC)OC(=O)/C=C/C=C(\C)CC(OC)CC2=CC(=O)O[C@H](C2)C(C)C(OC)CC(OC)/C=C/C(C)C(OC)C1 (stereo partly drawn)
TGI [1]: > 4.35 µM | TGI [2]: 2.17 µM | TGI [3]: > 4.35 µM | TGI [4]: > 4.35 µM | TGI [5]: 0.851 µM | TGI [6]: > 4.35 µM | TGI [7]: > 4.35 µM | TGI [8]: > 4.35 µM | TGI [9]: > 4.35 µM | TGI [10]: > 4.35 µM | TGI [11]: > 4.35 µM | TGI [12]: 1.73 µM | TGI [13]: > 4.35 µM | TGI [14]: 1.32 µM | TGI [15]: 0.387 µM | TGI [16]: > 4.35 µM | TGI [17]: 0.435 µM | TGI [18]: > 4.35 µM | TGI [19]: > 4.35 µM | TGI [20]: > 4.35 µM | TGI [21]: > 4.35 µM | TGI [22]: > 4.35 µM | TGI [23]: > 4.35 µM | TGI [24]: > 4.35 µM | TGI [25]: > 4.35 µM | TGI [26]: 2.26 µM | TGI [27]: > 4.35 µM | TGI [28]: > 4.35 µM | TGI [29]: 1.82 µM | TGI [30]: > 4.35 µM | TGI [31]: > 4.35 µM | TGI [32]: > 4.35 µM | TGI [33]: > 4.35 µM | TGI [34]: > 4.35 µM | TGI [35]: 3.1 µM | TGI [36]: > 4.35 µM | TGI [37]: 0.207 µM | TGI [38]: 2.19 µM | TGI [39]: > 4.35 µM | TGI [40]: 1.25 µM | TGI [41]: > 4.35 µM | TGI [42]: > 4.35 µM | TGI [43]: > 4.35 µM | TGI [44]: > 4.35 µM | TGI [45]: 0.0426 µM | TGI [46]: > 4.35 µM | TGI [47]: > 4.35 µM | TGI [48]: > 4.35 µM | TGI [49]: 1.66 µM | TGI [50]: > 4.35 µM | TGI [51]: > 4.35 µM | TGI [52]: 3.05 µM | TGI [53]: 1.22 µM

O=C1O/C(=C\c2ccc(O)cc2)C(c2ccc(O)c(Cl)c2)=C1Cl
TGI [1]: > 100 µM | TGI [2]: > 100 µM | TGI [3]: > 100 µM | TGI [4]: > 100 µM | TGI [5]: > 100 µM | TGI [6]: > 100 µM | TGI [7]: > 100 µM | TGI [8]: > 100 µM | TGI [9]: > 100 µM | TGI [10]: 89.9 µM | TGI [11]: > 100 µM | TGI [12]: 94.7 µM | TGI [13]: > 100 µM | TGI [14]: 60.6 µM | TGI [15]: > 100 µM | TGI [16]: > 100 µM | TGI [17]: > 100 µM | TGI [18]: > 100 µM | TGI [19]: > 100 µM | TGI [54]: > 100 µM | TGI [20]: > 100 µM | TGI [55]: 74.5 µM | TGI [21]: 47.4 µM | TGI [22]: > 100 µM | TGI [23]: 81.7 µM | TGI [24]: 68 µM | TGI [25]: > 100 µM | TGI [26]: > 100 µM | TGI [27]: 76.6 µM | TGI [28]: > 100 µM | TGI [29]: 53.3 µM | TGI [30]: 97.6 µM | TGI [31]: > 100 µM | TGI [32]: > 100 µM | TGI [33]: > 100 µM | TGI [34]: > 100 µM | TGI [35]: > 100 µM | TGI [36]: > 100 µM | TGI [56]: 73 µM | TGI [37]: > 100 µM | TGI [38]: > 100 µM | TGI [57]: > 100 µM | TGI [39]: 77.4 µM | TGI [40]: > 100 µM | TGI [41]: 43.2 µM | TGI [42]: > 100 µM | TGI [43]: > 100 µM | TGI [44]: > 100 µM | TGI [45]: > 100 µM | TGI [46]: > 100 µM | TGI [47]: > 100 µM | TGI [48]: > 100 µM | TGI [49]: > 100 µM | TGI [50]: > 100 µM | TGI [51]: > 100 µM | TGI [52]: > 100 µM | TGI [53]: > 100 µM

O=c1c2c(F)c(F)c(F)c(F)c2sc2nccn12
TGI [1]: 29.3 µM | TGI [2]: 35.1 µM | TGI [3]: 36.7 µM | TGI [4]: 30 µM | TGI [5]: 33.3 µM | TGI [6]: 29.6 µM | TGI [7]: 32.7 µM | TGI [8]: 41.9 µM | TGI [9]: 50.2 µM | TGI [10]: 31.9 µM | TGI [58]: 27.7 µM | TGI [11]: 29 µM | TGI [12]: 4.14 µM | TGI [13]: 42.3 µM | TGI [14]: 39.4 µM | TGI [15]: 76.2 µM | TGI [16]: 34.7 µM | TGI [17]: 32.3 µM | TGI [18]: 29.4 µM | TGI [19]: 32.2 µM | TGI [54]: 26.7 µM | TGI [20]: 32 µM | TGI [55]: 35.4 µM | TGI [21]: 37.9 µM | TGI [22]: 35.9 µM | TGI [23]: 28.6 µM | TGI [24]: 29.4 µM | TGI [25]: 9.62 µM | TGI [26]: 52.3 µM | TGI [27]: 34.9 µM | TGI [28]: 27.3 µM | TGI [29]: 37.2 µM | TGI [30]: 93.3 µM | TGI [31]: 29.8 µM | TGI [32]: 35.8 µM | TGI [33]: 36.3 µM | TGI [34]: 44.8 µM | TGI [35]: 35.9 µM | TGI [36]: 42.4 µM | TGI [56]: 32 µM | TGI [37]: 36.2 µM | TGI [38]: 36.3 µM | TGI [57]: 31.4 µM | TGI [39]: 38.5 µM | TGI [40]: 53.5 µM | TGI [41]: 35.8 µM | TGI [42]: 36 µM | TGI [43]: 33.3 µM | TGI [44]: 35.9 µM | TGI [45]: 50.4 µM | TGI [46]: 18.7 µM | TGI [47]: 33 µM | TGI [48]: 24.2 µM | TGI [49]: 32.8 µM | TGI [50]: 29.2 µM | TGI [51]: 45.5 µM | TGI [52]: 31.8 µM

CNC(=O)NS(=O)(=O)c1ccc(C)cc1
TGI [1]: > 100 µM | TGI [3]: > 100 µM | TGI [4]: > 100 µM | TGI [59]: > 100 µM | TGI [6]: > 100 µM | TGI [7]: > 100 µM | TGI [8]: > 100 µM | TGI [58]: > 100 µM | TGI [11]: > 100 µM | TGI [12]: > 100 µM | TGI [13]: > 100 µM | TGI [14]: > 100 µM | TGI [15]: > 100 µM | TGI [16]: > 100 µM | TGI [17]: > 100 µM | TGI [18]: > 100 µM | TGI [19]: > 100 µM | TGI [54]: > 100 µM | TGI [20]: > 100 µM | TGI [55]: > 100 µM | TGI [21]: > 100 µM | TGI [22]: > 100 µM | TGI [24]: > 100 µM | TGI [25]: > 100 µM | TGI [27]: > 100 µM | TGI [28]: > 100 µM | TGI [29]: > 100 µM | TGI [30]: > 100 µM | TGI [32]: > 100 µM | TGI [33]: > 100 µM | TGI [34]: > 100 µM | TGI [35]: > 100 µM | TGI [36]: > 100 µM | TGI [56]: > 100 µM | TGI [37]: > 100 µM | TGI [38]: > 100 µM | TGI [57]: > 100 µM | TGI [39]: > 100 µM | TGI [40]: > 100 µM | TGI [41]: > 100 µM | TGI [42]: > 100 µM | TGI [43]: > 100 µM | TGI [44]: > 100 µM | TGI [45]: > 100 µM | TGI [47]: > 100 µM | TGI [48]: > 100 µM | TGI [49]: > 100 µM | TGI [50]: > 100 µM | TGI [51]: > 100 µM | TGI [52]: > 100 µM | TGI [53]: > 100 µM
